Results from US20260327264A1, “PEPTIDE INHIBITORS OF INTERLEUKIN-23 RECEPTOR” (Zealand Pharma A/S, priority 2023, published 2026).
*1 amine or outer side, *2 acyl side, *3 side chain or, on linkers, in order; H or OH if unused. Where a SMILES comes first, the peptide text is derived from it. Bridges are numbered along the chain shown (N, C = ends). [ ]: non-standard residue; d: D form. 2Nal = N[C@@H](Cc1ccc2ccccc2c1)C(=O)O; AEF = NCCOc1ccc(C[C@H](N)C(=O)O)cc1; X1 = O=C(Cc1ccc(CN[*:1])cc1)[*:2]; 3Pal = N[C@@H](Cc1cccnc1)C(=O)O; αMeL = CC(C)C[C@](C)(N)C(=O)O; Dab = NCC[C@H](N)C(=O)O; Sar = CNCC(=O)O

Tests used:
[1] = Peptide stability in simulated gastric fluid (SGF); format: in vitro ADME; conditions: pig, pH 1.2, pepsin, 37° C.
How it was run: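 Peptide (10 μM final) incubated at 37 °C in USP SGF, pH 1.2 with porcine pepsin 3.2 g/L; aliquots at 0, 1 and 4 h quenched in acidified acetonitrile.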

[2] = Peptide stability in simulated intestinal fluid (SIF); format: in vitro ADME; conditions: simulated intestinal fluid; for remaining at 1 h, 10 µM: pig, SIF, pH 6.8, pancreatin, 37° C.
How it was run: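 Peptide at 10 μM final in USP-type SIF (10 g/L porcine pancreatin, phosphate buffer pH 6.8), shaken at 37 °C. Samples at 0, 1 and 4 h quenched in acetonitrile/0.1% formic acid and analysed by LC-HRMS. Percent remaining calculated from absolute peak areas relative to time zero.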

Row | Structure (SMILES) | remaining at 4 h, 10 µM [1] [%] | remaining at 1 h, 10 µM [2] [%] | SIF stability (in words) [2] | remaining at 1 h, 10 µM [1] [%]
1 | CC(C)C[C@]1(C)NC(=O)[C@H](Cc2ccc3ccccc3c2)NC(=O)[C@H](Cc2ccc(OCCN)cc2)NC(=O)[C@@H]2CCNC(=O)CC[C@H](NC(=O)[C@H](CO)NC(=O)Cc3ccc(cc3)CNC(=O)CC[C@@H](C(=O)N[C@@H](CCN)C(=O)N[C@@H](Cc3cccnc3)C(=O)N(C)CC(N)=O)NC1=O)C(=O)N[C@@H](Cc1c[nH]c3ccccc13)C(=O)N[C@@H](CCC(N)=O)C(=O)N2 [Compound 9, [4-Aminomethyl-phenylacetyl](1c)*SE(2c)WQ[Dab](2c)[Y(2-aminoethoxy)][2-Nal][2-Me-Leu]E(1c)[Dab][3-(3-Pyridyl)-Ala][Sar]-[NH2]] ([X1]SEWQ[Dab][AEF][2Nal][αMeL]E[Dab][3Pal][Sar]-NH2; lactam 3-6, N-10) | 95 | 102 | SIF stable | –
2 | CNC(=O)[C@H](Cc1cccnc1)NC(=O)[C@H](CCN)NC(=O)[C@@H]1CCC(=O)NCc2ccc(cc2)CC(=O)N[C@@H](CO)C(=O)N[C@H]2CCC(=O)NCC[C@H](NC(=O)[C@H](CCC(N)=O)NC(=O)[C@H](Cc3c[nH]c4ccccc34)NC2=O)C(=O)N[C@@H](Cc2ccc(OCCN)cc2)C(=O)N[C@@H](Cc2ccc3ccccc3c2)C(=O)N[C@@](C)(CC(C)C)C(=O)N1 [Compound 8, [4-Aminomethyl-phenylacetyl](1c)*SE(2c)WQ[Dab](2c)[Y(2-aminoethoxy)][2-Nal][2-Me-Leu]E(1c)[Dab][3-(3-Pyridyl)-Ala]-[NHMe]] | 87 | 96 | SIF stable | 91
3 | CNC(=O)[C@H](Cc1cccnc1)NC(=O)[C@H](CCN)NC(=O)[C@@H]1CCC(=O)NCc2ccc(cc2)CC(=O)N[C@@H](C)C(=O)N[C@H]2CCC(=O)NCC[C@H](NC(=O)[C@H](CCC(N)=O)NC(=O)[C@H](Cc3c[nH]c4ccccc34)NC2=O)C(=O)N[C@@H](Cc2ccc(OCCN)cc2)C(=O)N[C@@H](Cc2ccc3ccccc3c2)C(=O)N[C@@](C)(CC(C)C)C(=O)N1 [Compound 20, [4-Aminomethyl-phenylacetyl](1c)*AE(2c)WQ[Dab](2c)[Y(2-aminoethoxy)][2-Nal][2-Me-Leu]E(1c)[Dab][3-(3-Pyridyl)-Ala]-[NHMe]] | 103 | – | – | 107
4 | CNC(=O)[C@H](Cc1cccnc1)NC(=O)[C@H](CCN)NC(=O)[C@@H]1CCC(=O)NCc2ccc(cc2)CC(=O)N[C@@H](C)C(=O)N[C@H]2CCC(=O)NCC[C@H](NC(=O)[C@H](CCC(N)=O)NC(=O)[C@H](Cc3c[nH]c4ccccc34)NC2=O)C(=O)N[C@@H](Cc2c[nH]c3ncccc23)C(=O)N[C@@H](Cc2ccc3ccccc3c2)C(=O)NC(C)(C)C(=O)N1 [Compound 43, [4-Aminomethyl-phenylacetyl](1c)*AE(2c)WQ[Dab](2c)[7-AzaTrp][2-Nal][Aib]E(1c)[Dab][3-(3-Pyridyl)-Ala]-[NHMe]] | – | 96 | – | 105
5 | CNC(=O)CC[C@@H]1NC(=O)[C@H](Cc2c[nH]c3ccccc23)NC(=O)[C@@H]2CCC(=O)NCC[C@H](NC1=O)C(=O)N[C@@H](Cc1ccc(OCCN)cc1)C(=O)N[C@@H](Cc1ccc3ccccc3c1)C(=O)N[C@@](C)(CC(C)C)C(=O)N[C@H](C(=O)N[C@@H](CCN)C(=O)N[C@@H](Cc1cccnc1)C(=O)NC)CCC(=O)NCc1ccc(cc1)CC(=O)N[C@@H](CO)C(=O)N2 [Compound 29, [4-Aminomethyl-phenylacetyl](1c)*SE(2c)W[Q(Me)][Dab](2c)[Y(2-aminoethoxy)][2-Nal][2-Me-Leu]E(1c)[Dab][3-(3-Pyridyl)-Ala]-[NHMe]] ([X1]SEWE(NHMe)[Dab][AEF][2Nal][αMeL]E[Dab][3Pal]-NHMe; lactam 3-6, N-10) | 90 | 91 | – | 94
